Assay results published in patent US20260184708A1, “PYRIDAZINONES AND METHODS OF USE THEREOF” (GFB (ABC), LLC, priority 2017, published 2026).
Where two headings read alike, the source gives them in different places.

Target: T1, TRPC5 (Homo sapiens, UniProt Q9UL62)
T1 construct: expressed in transfected cells; host or cells: HEK 293
T1 sequence (Q9UL62 1-973): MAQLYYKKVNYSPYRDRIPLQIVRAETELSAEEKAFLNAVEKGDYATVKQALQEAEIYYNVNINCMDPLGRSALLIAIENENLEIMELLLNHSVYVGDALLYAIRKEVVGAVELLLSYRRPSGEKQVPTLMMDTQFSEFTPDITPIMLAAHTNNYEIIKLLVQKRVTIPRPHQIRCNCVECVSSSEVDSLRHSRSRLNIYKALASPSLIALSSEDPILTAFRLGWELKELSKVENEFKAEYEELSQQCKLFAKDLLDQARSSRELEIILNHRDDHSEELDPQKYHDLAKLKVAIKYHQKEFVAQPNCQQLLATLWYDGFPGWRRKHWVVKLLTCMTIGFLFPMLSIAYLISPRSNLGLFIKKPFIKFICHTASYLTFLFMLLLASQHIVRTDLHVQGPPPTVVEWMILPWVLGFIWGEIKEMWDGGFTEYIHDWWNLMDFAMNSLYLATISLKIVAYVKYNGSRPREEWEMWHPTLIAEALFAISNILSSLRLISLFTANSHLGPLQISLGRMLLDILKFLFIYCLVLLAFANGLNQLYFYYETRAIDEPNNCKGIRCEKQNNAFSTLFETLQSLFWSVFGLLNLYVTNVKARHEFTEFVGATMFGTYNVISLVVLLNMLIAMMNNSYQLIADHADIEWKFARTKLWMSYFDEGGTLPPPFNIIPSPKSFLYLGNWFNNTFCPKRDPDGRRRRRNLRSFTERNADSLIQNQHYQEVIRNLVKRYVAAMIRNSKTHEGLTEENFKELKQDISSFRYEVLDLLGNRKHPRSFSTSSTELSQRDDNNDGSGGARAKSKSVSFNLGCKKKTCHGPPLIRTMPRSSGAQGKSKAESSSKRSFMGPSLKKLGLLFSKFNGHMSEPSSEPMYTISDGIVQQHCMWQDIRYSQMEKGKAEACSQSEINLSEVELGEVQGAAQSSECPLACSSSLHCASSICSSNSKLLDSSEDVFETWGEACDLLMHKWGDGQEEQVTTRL
Experiment: TRPC5 automated patch clamp assay (Qpatch), current block after rosiglitazone stimulation
Assay type: cell-based
Settings: HEK293 cells overexpressing TRPC5, rosiglitazone stimulation
Method: HEK 293 cells expressing human TRPC5 were harvested, re-suspended in serum free medium, and added to the automated platform and used within 2-3 hours. Internal and external physiological solutions were freshly prepared prior to the assay. The external solution contained: 145 mM NaCl, 4 mM KCl, 2 mM CaCl2), 1 mM MgCl2, 10 mM HEPES, 10 mM glucose, pH 7.4 with NaOH and 300 mOsm/L. The internal solution contained 120 mM L-aspartic acid, 120 mM CsOH·H2O, 20 mM CsCl, 2 mM MgCl2, 8.8 mM CaCl2), 10 mM EGTA, 10 mM HEPES, 10 mM Glucose, 0.1 mM GTP and 2 mM Na2ATP; pH 7.2 with CsOH and 290 mOsm/L. The free internal Ca2+ concentration was buffered to 1 μM.
The automated electrophysiological platform QPatch 16 from Sophion (Denmark) was used to carry out the compounds profiling. The series resistance and quality of seals were continuously monitored during the experiments. Data was analyzed using Sophion QPatch assay software 5.6 (Odense). IC50 values were calculated using a least squares regression algorithm (Hill equation).
To monitor the ion currents, a voltage ramp from −100 mV to +100 mV, over 300 ms, was applied every 10 seconds, from a holding potential of −60 mV.
After recording for a minimum of 60 seconds control period, Rosiglitazone (30 uM), was applied to activate the channel.

[1] = Table 4, 80 mV, read-out: TRPC5_QP_ XC50_80
[2] = Table 4, 100 mV, read-out: TRPC5_QP_ XC50_100
[3] = Table 5, 80 mV, read-out: TRPC5_QP_ XC50_80
[4] = Table 5, 100 mV, read-out: TRPC5_QP_ XC50_100

IC50 [1] [µM]	IC50 [2] [µM]	IC50 [3] [µM]	IC50 [4] [µM]	Structure (SMILES)
5 to 10	5 to 10	–	–	O=c1[nH]ncc(Cl)c1N1CCN(Cc2ccccc2OC(F)(F)F)CC1
10 to 500	10 to 500	–	–	O=C1CN(c2cn[nH]c(=O)c2Cl)CCN1Cc1cccc(-c2ccccc2)c1
10 to 500	10 to 500	–	–	O=c1[nH]ncc(N2CCN(Cc3cccc4[nH]ncc34)CC2)c1Cl
10 to 500	10 to 500	–	–	O=c1[nH]ncc(N2CCN(Cc3cccc4cn[nH]c34)CC2)c1Cl
10 to 500	10 to 500	–	–	CC(C)=Cc1c(N2CCN(Cc3ccccc3C)C(=O)C2)cn[nH]c1=O
1 to 5	1 to 5	–	–	O=C1CN(c2cn[nH]c(=O)c2Cl)CCN1Cc1ccccc1-c1ccccc1
–	–	10 to 500	10 to 500	Cc1cc(N2CCN(Cc3ccc(F)cc3C)C(=O)C2)c(=O)[nH]n1
–	–	5 to 10	5 to 10	Cc1n[nH]c(=O)c(N2CCN(Cc3ccccc3C(F)(F)F)C(=O)C2)c1Cl
–	–	5 to 10	5 to 10	Cc1n[nH]c(=O)c(N2CCN(Cc3ccccc3OC(F)(F)F)C(=O)C2)c1Cl
–	–	1 to 5	5 to 10	COc1cc(C(F)(F)F)ccc1CN1CCN(c2cn[nH]c(=O)c2Cl)CC1=O
–	–	5 to 10	10 to 500	Cn1nc(CN2CCN(c3cn[nH]c(=O)c3Cl)CC2)c2ccccc21
–	–	1 to 5	1 to 5	O=c1[nH]ncc(N2CCN(Cc3ccc(F)cc3C(F)(F)F)CC2)c1Cl
–	–	5 to 10	5 to 10	O=C1CN(c2cn[nH]c(=O)c2Cl)CCN1Cc1ccc(OC(F)(F)F)cc1F
–	–	5 to 10	5 to 10	Cc1n[nH]c(=O)c(Cl)c1N1CCN(Cc2ccccc2OC(F)(F)F)C(=O)C1
–	–	10 to 500	10 to 500	COc1cc(F)ccc1CN1CCN(c2c(Cl)cn[nH]c2=O)CC1=O
–	–	5 to 10	5 to 10	COc1ncccc1CN1CCN(c2cn[nH]c(=O)c2Cl)CC1=O
–	–	1 to 5	5 to 10	O=C1CN(c2cn[nH]c(=O)c2Cl)CCN1Cc1ccc(Cl)cc1
–	–	10 to 500	10 to 500	CCCOc1n[nH]c(=O)cc1N1CCN(Cc2ccc(F)cc2C)CC1
–	–	1 to 5	1 to 5	Cc1cc(F)ccc1CN1CCN(c2cc(=O)[nH]nc2-c2ccccc2)CC1
–	–	1 to 5	1 to 5	CC[C@@H](c1ccccc1)N1CCN(c2cn[nH]c(=O)c2Cl)CC1
–	–	10 to 500	10 to 500	Cc1cc(F)ccc1CN1CCN(c2cc(=O)[nH]nc2C)CC1=O
–	–	10 to 500	10 to 500	Cc1ccccc1Cn1cnc2c1CN(c1cn[nH]c(=O)c1Cl)CC2
–	–	5 to 10	5 to 10	CS(=O)(=O)c1ccccc1CN1CCN(c2cn[nH]c(=O)c2Cl)CC1
–	–	5 to 10	5 to 10	O=c1[nH]ncc(N2CCN(Cc3cccnc3Oc3ccccc3)CC2)c1Cl
–	–	10 to 500	10 to 500	O=C1CN(c2cn[nH]c(=O)c2Cl)CCN1Cc1ccc(C2CC2)cc1

More lines, now with the values behind:

Structure (SMILES)	IC50 [1] [µM]	IC50 [2] [µM]	IC50 [3] [µM]	IC50 [4] [µM]
COc1n[nH]c(=O)cc1N1CCN(Cc2ccc(F)cc2C)CC1	10 to 500	10 to 500	–	–
Cc1cccnc1CN1CCN(c2cn[nH]c(=O)c2Cl)CC1	5 to 10	5 to 10	–	–
Cn1ncc2c(CN3CCN(c4cn[nH]c(=O)c4Cl)CC3)cccc21	10 to 500	10 to 500	–	–
O=C1CN(c2cn[nH]c(=O)c2Cl)CCN1Cc1ccc(Oc2ccccc2)cc1	10 to 500	10 to 500	–	–
Cc1ccncc1CN1CCN(c2cn[nH]c(=O)c2Cl)CC1	5 to 10	5 to 10	–	–
O=C1CN(c2cn[nH]c(=O)c2Cl)CCN1Cc1cccc(Oc2ccccc2)c1	1 to 5	1 to 5	–	–
O=C1CN(c2cn[nH]c(=O)c2Cl)CCN1Cc1ccccc1Oc1ccccc1	5 to 10	5 to 10	–	–
O=C1CN(c2cn[nH]c(=O)c2Cl)CCN1Cc1cccc2ccccc12	1e-05 to 1	1e-05 to 1	–	–
CCCc1c(N2CCN(Cc3ccccc3C)C(=O)C2)cn[nH]c1=O	10 to 500	10 to 500	–	–
C=C(C)c1c(N2CCN(Cc3ccccc3C)C(=O)C2)cn[nH]c1=O	10 to 500	10 to 500	–	–
O=c1[nH]ncc(N2CCOC(Cc3ccccc3)C2)c1Cl (centres unmarked)	10 to 500	10 to 500	–	–
O=c1[nH]ncc(N2CCOC(c3ccccc3)C2)c1Cl (centres unmarked)	10 to 500	10 to 500	–	–
Cc1ccccc1C(C)N1CCN(c2cn[nH]c(=O)c2Cl)CC1=O (centres unmarked)	1e-05 to 1	1e-05 to 1	–	–
Cc1ccccc1CN1CCN(c2cn[nH]c(=O)c2CC(C)C)CC1=O	10 to 500	10 to 500	–	–
C=Cc1n[nH]c(=O)c(N2CCN(Cc3ccc(F)cc3C)CC2)c1Cl	–	–	10 to 500	10 to 500
Cc1cc(F)ccc1CN1CCN(c2c(Cl)c(-c3ccccc3)n[nH]c2=O)CC1	–	–	10 to 500	10 to 500
Cc1cc(F)ccc1CN1CCN(c2c(Cl)c(Br)n[nH]c2=O)CC1	–	–	10 to 500	10 to 500
Cc1n[nH]c(=O)c(N2CCN(Cc3ccc(F)cc3C(F)(F)F)C(=O)C2)c1Cl	–	–	10 to 500	10 to 500
Cc1ccccc1N1CCN(c2cn[nH]c(=O)c2Cl)CC1	–	–	1 to 5	1 to 5
O=C1CN(c2cn[nH]c(=O)c2Cl)CCN1Cc1ccc(OC(F)(F)F)cc1	–	–	1 to 5	1 to 5

Structure (SMILES)	IC50 [1] [µM]	IC50 [2] [µM]	IC50 [3] [µM]	IC50 [4] [µM]
CCn1nc(CN2CCN(c3cn[nH]c(=O)c3Cl)CC2)c2ccccc21	–	–	10 to 500	10 to 500
O=C1CN(c2cn[nH]c(=O)c2Cl)CCN1Cc1ccc(F)cc1C(F)(F)F	–	–	1e-05 to 1	1e-05 to 1
CC(C)(C)c1ccc(CN2CCN(c3cn[nH]c(=O)c3Cl)CC2=O)cc1	–	–	10 to 500	10 to 500
COc1ncccc1CN1CCN(c2cn[nH]c(=O)c2Cl)CC1	–	–	1 to 5	1 to 5
Cc1n[nH]c(=O)c(Cl)c1N1CCN(Cc2ccccc2C(F)(F)F)C(=O)C1	–	–	5 to 10	5 to 10
O=C1CN(c2cn[nH]c(=O)c2Cl)CCN1Cc1cccnc1Cl	–	–	10 to 500	10 to 500
COc1ccc(CN2CCN(c3cn[nH]c(=O)c3Cl)CC2=O)cc1	–	–	5 to 10	5 to 10
CC[C@@H]1CN(Cc2ccc(F)cc2C)CCN1c1cn[nH]c(=O)c1Cl	–	–	10 to 500	10 to 500
Cc1ccc(CN2CCN(c3cn[nH]c(=O)c3Cl)CC2=O)cc1	–	–	5 to 10	5 to 10
CC(c1ccccc1)n1cnc2c1CCN(c1cn[nH]c(=O)c1Cl)C2 (centres unmarked)	–	–	1 to 5	1 to 5
O=C1CN(c2cn[nH]c(=O)c2Cl)CCN1Cc1cccnc1Oc1ccccc1	–	–	5 to 10	5 to 10
C=Cc1n[nH]c(=O)c(Cl)c1N1CCN(Cc2ccc(F)cc2C)CC1	–	–	10 to 500	10 to 500
O=C1CN(c2cn[nH]c(=O)c2Cl)CCN1C1(c2ccccc2)CC1	–	–	1 to 5	1 to 5
CC[C@H](c1ccccc1)N1CCN(c2cn[nH]c(=O)c2Cl)CC1	–	–	1 to 5	1 to 5
O=c1[nH]ncc(N2CCc3ncn(Cc4ccccc4)c3C2)c1Cl	–	–	10 to 500	10 to 500
CCc1cn[nH]c(=O)c1N1CCN(Cc2ccc(F)cc2C)CC1	–	–	1 to 5	1 to 5
COc1cn[nH]c(=O)c1N1CCN(Cc2ccc(F)cc2C)CC1	–	–	1 to 5	1 to 5
Cc1cc(F)ccc1CN1CCN(c2c(C)cn[nH]c2=O)CC1	–	–	1 to 5	1 to 5
CS(=O)(=O)c1ccc(CN2CCN(c3cn[nH]c(=O)c3Cl)CC2=O)cc1	–	–	10 to 500	10 to 500
